Results on 20 compounds are retold here after US11613531B2, “Inhibitors of RHO associated coiled-coil containing protein kinase” (Kadmon Corporation, LLC, priority 2017, dated 2023).

Experiment [1] relates to ppMlc (T18/S19) levels in A7R5 cells. Nature of the experiment: A7R5 in-cell ELISA (pMLC). It counts as cell-based, Rat. As to conditions: Rattus norvegicus, A7R5, A7R5 cells; for inhibition at 1 µM: 1 μM compound. The method, boiled down: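 Cellular IC50 came from a nonlinear regression fit of ppMlc (T18/S19) signal, read by colorimetric in-cell ELISA on fixed cells. Rat A7R5 aortic smooth muscle cells had been exposed for 90 min to compounds in 9-point 2-fold serial dilution, 24 h after seeding.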
On the technique in general: ELISA stands for enzyme-linked immunosorbent assay.

In experiment [2] the test system is human ACTA2 gene promoter luciferase reporter in NIH3T3 cells. Kind of experiment: NIH3T3 Acta2-promoter driven-luciferase assay. It counts as cell-based. The settings on record: NIH3T3, 24 h, read-out: NIH3T3 Acta2-luc, IC50. How it is done:
NIH3T3 Cells Acta2-Promoter Driven-Luciferase Assay.
A NIH3T3 cell line stably expressing a luciferase reporter driven by the human ACTA2 gene promoter (−1000-1 bp) was established (NIH3T3-Acta2-luciferase). The cells were plated to confluence and treated with the test compounds plus TGFβ1 for 24 hr. Cells were then lysed and luciferase activity was measured using the LightSwitch luciferase kit from Active Motif.
In vitro activities for the compounds were measured with Z′-lyte kinase kit (ThermoFisher Scientific). The percent inhibition rate was calculated by normalizing the kinase activity value obtained with 1 μM compound treatment against DMSO control value and then applied to the formula, [1-(compound/DMSO)]×100%. IC50s were calculated using the nonlinear regression curve fit function of the GraphPad Prism software with kinase activities data measured with 9 points 2-fold serial dilution of compounds treatment. In cell pMLC IC50s were calculated with data obtained from A7R5 cell experiments. A7R5 cells were treated with 9 points 2-fold serial dilution of compounds and ppMlc (T18/S19) levels were determined to calculate cellular IC50 values of the compounds using the nonlinear regression curve fit function of the GraphPad Prism software. NIH3T3 cells stably expressing ACTA2-promoter-driven-luciferase were applied to measure ROCK compounds functional IC50s in cells. Cells were plated in 96 well plates to confluence and treated with 9 points serial dilution of compounds in combination with TGFβ1 for 24 hr. Luciferase activities were measured and compound's IC50s were calculated using the nonlinear regression curve fit function of the GraphPad Prism software.
ROCK inhibitors can be effectively rank ordered by ACTA2-promoter-driven-luciferase reporter cell assay. NIH3T3 cells stably expressing ACTA2-promoter-driven-luciferase were plated in 96 well plates to confluence and treated with 9 points serial dilution of compounds in combination with TGFβ1 for 24 hr. Luciferase activities were measured and compound's IC50s were calculated. By this assay multiple compounds of the invention gave IC50s under 200 nM.

The target of experiment [3] is Recombinant ROCK2 (amino acids 1-552) (Homo sapiens (Human), UniProt O75116). Nature of the experiment: Z′-Lyte kinase assay, ROCK2. It counts as biochemical. As to conditions: for inhibition at 1 µM: 1 μM compound; for inhibition at 1 µM / inhibition at 0.5 µM: read-out: ROCK2 % inh. @ [conc]; for inhibition at 0.5 µM: 0.5 μM compound. The gist of the method:
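IC50s derive from nonlinear curve fits over a 9-point, 2-fold dilution series, with single-point inhibition at 1 μM expressed relative to DMSO. Activity of truncated human ROCK1 (residues 1-535) and ROCK2 (residues 1-552) measured with the Z′-Lyte kinase format.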

Setting [4] is: read-out: pMLC % inh A7R5 @ [conc].
Setting [5] is: NIH3T3 cells, plus TGFβ1 for 24 hr.
[6] abbreviates: 9 points 2-fold serial dilution.

The structures appear in SMILES notation. Read-outs that look alike come from different tables or passages of the source. A value given as a limit tells only on which side of the number the result lay.

What is called IC50 is the concentration that gives 50% inhibition.

Recombinant ROCK2 (amino acids 1-552), sequence (O75116 1-552): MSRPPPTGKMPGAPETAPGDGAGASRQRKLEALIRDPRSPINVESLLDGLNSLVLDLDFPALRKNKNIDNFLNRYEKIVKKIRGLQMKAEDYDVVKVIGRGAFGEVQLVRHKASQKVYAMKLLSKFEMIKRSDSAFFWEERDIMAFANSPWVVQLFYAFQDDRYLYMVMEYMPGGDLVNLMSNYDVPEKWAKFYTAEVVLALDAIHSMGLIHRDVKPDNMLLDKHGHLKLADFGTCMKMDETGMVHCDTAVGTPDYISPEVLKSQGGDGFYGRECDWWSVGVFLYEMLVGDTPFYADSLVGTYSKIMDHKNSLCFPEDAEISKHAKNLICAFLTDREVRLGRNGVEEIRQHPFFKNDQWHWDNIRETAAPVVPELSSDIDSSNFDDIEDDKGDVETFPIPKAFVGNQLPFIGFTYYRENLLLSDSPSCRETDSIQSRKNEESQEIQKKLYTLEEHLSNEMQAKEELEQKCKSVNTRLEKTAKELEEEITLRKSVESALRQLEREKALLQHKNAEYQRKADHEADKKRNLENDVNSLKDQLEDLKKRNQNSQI

Regarding `Cc1cc(Nc2ccc3[nH]ncc3c2)nc(N2CCNCC(C)C2)n1` (centres unmarked) [Example 118, N-(6-methyl-2-(6-methyl-1,4-diazepan-1-yl)pyrimidin-4-yl)-1H-indazol-5-amine], the values for the inhibition at 1 µM in experiment [1] (setting [4]) and in experiment [3] were 32.9% and 95.6%, respectively. Also, the 50% inhibitory concentration (IC50) turned out to be 382 nM in experiment [1] (ppMlc (T18/S19)), 3730 nM in experiment [2] (setting [5]) and 90 nM in experiment [3] (setting [6]).
For the compound `Cc1cc(Nc2ccc3[nH]ncc3c2)nc(N2CC3CNC(C3)C2)n1` (centres unmarked) [Example 129, N-(2-(3,6-diazabicyclo[3.2.1]octan-3-yl)-6-methylpyrimidin-4-yl)-1H-indazol-5-amine], the IC50 in experiment [1] came out at 377 nM; in experiment [2] (with TGFβ1, 24 hr), 2920 nM; in experiment [3] it was 18 nM. In addition, the figures for the inhibition at 1 µM in experiment [1] (setting [4]) and in experiment [3] were 50.6% and 101%, respectively.
In the case of `Cc1cc(Nc2ccc3[nH]ncc3c2)nc(N2CCC3NCC3C2)n1` (centres unmarked) [Example 135, N-(2-(3,7-diazabicyclo[4.2.0]octan-3-yl)-6-methylpyrimidin-4-yl)-1H-indazol-5-amine], the IC50 in experiment [1] turned out to be 400 nM; in experiment [2] (with TGFβ1, 24 hr), 2070 nM; in experiment [3], 9.7 nM. Besides, in experiment [1] (setting [4]), the inhibition at 1 µM was 48.4%.
Regarding `Fc1cnc(N2CC3CCC2CN3)nc1Nc1ccc2[nH]ncc2c1` (centres unmarked) [Example 154, N-(2-(2,5-diazabicyclo[2.2.2]octan-2-yl)-5-fluoropyrimidin-4-yl)-1H-indazol-5-amine], the inhibition at 1 µM in experiment [1] (setting [4]) came out at 36.2%; in experiment [3], 98.5%. Besides, the half-maximal inhibitory concentration (IC50) in experiment [1] (ppMlc (T18/S19)) turned out to be 433 nM; in experiment [2] (setting [5]), 2910 nM; in experiment [3] (setting [6]), 245 nM.
Turning to `Fc1cnc(N2CC3CNC(C3)C2)nc1Nc1ccc2[nH]ncc2c1` (centres unmarked) [Example 166, N-(2-(3,6-diazabicyclo[3.2.1]octan-3-yl)-5-fluoropyrimidin-4-yl)-1H-indazol-5-amine], the concentration for half-maximal inhibition (IC50) in experiment [1] turned out to be 259 nM; in experiment [2] (with TGFβ1, 24 hr), 2040 nM. Also, the inhibition at 1 µM was 34.3% in experiment [1] (setting [4]) and 100% in experiment [3].
For the compound `Fc1cnc(N2CCC3CNCC3CC2)nc1Nc1ccc2[nH]ncc2c1` (centres unmarked) [Example 169, N-(5-fluoro-2-(octahydropyrrolo[3,4-d]azepin-6(1H)-yl)pyrimidin-4-yl)-1H-indazol-5-amine], the IC50 in experiment [1] came out at 395 nM; in experiment [2] (with TGFβ1, 24 hr) it was 1830 nM. The inhibition at 1 µM in experiment [1] (setting [4]) was 30.9%; in experiment [3], 99.5%.
Regarding `Fc1cnc(N2CCC3NCC3C2)nc1Nc1ccc2[nH]ncc2c1` (centres unmarked) [Example 170, N-(2-(3,7-diazabicyclo[4.2.0]octan-3-yl)-5-fluoropyrimidin-4-yl)-1H-indazol-5-amine], the IC50 was 274 nM in experiment [1]; 572 nM in experiment [2] (with TGFβ1, 24 hr); 27 nM in experiment [3]. The inhibition at 1 µM was found to be 31.5% in experiment [1] (setting [4]) and 99.1% in experiment [3].
Consider `Cc1cc(Nc2ccc3[nH]ncc3c2)nc(N2CCNCC2)n1` [Example 205, N-(6-methyl-2-(piperazin-1-yl)pyrimidin-4-yl)-1H-indazol-5-amine], for which, in experiment [1] (10 μM compound, read-out: pMLC % inh A7R5 @ [conc]), the inhibition at 10 µM stood at 55%. The half-inhibitory concentration (IC50) in experiment [1] (ppMlc (T18/S19)) came to 415 nM; in experiment [2] (setting [5]), 1280 nM; in experiment [3] (setting [6]), 61 nM.
Turning to `Cc1cc(Nc2ccc3[nH]ncc3c2)nc(N2CC3CC2CN3)n1` (centres unmarked) [Example 211, N-(2-(2,5-diazabicyclo[2.2.1]heptan-2-yl)-6-methylpyrimidin-4-yl)-1H-indazol-5-amine], the inhibition at 1 µM in experiment [1] (setting [4]) worked out at 35.8%; in experiment [3], 104%. The IC50 in experiment [1] (ppMlc (T18/S19)) is 66 nM; in experiment [2] (setting [5]), 437 nM.
Consider `CC1CNCCN1c1ncc(F)c(Nc2ccc3[nH]ncc3c2)n1` (centres unmarked) [Example 216, N-(5-fluoro-2-(2-methylpiperazin-1-yl)pyrimidin-4-yl)-1H-indazol-5-amine], for which, in experiment [1] (setting [4]), the inhibition at 1 µM is 42.6%. Besides, the values for the concentration for half-maximal inhibition (IC50) in experiment [1] (ppMlc (T18/S19)), in experiment [2] (setting [5]) and in experiment [3] (setting [6]) were 517 nM, 1380 nM and 70 nM, respectively.
In the case of `Fc1cnc(N2C3CCC2CNC3)nc1Nc1ccc2[nH]ncc2c1` [Example 221, N-(2-(3,8-diazabicyclo[3.2.1]octan-8-yl)-5-fluoropyrimidin-4-yl)-1H-indazol-5-amine], the inhibition at 1 µM in experiment [1] (setting [4]) was determined as 39.6%. For the same compound, the values for the IC50 in experiment [1] (ppMlc (T18/S19)), in experiment [2] (setting [5]) and in experiment [3] (setting [6]) were 50 nM, 243 nM and 3.7 nM, respectively.
For `Clc1cnc(N2C3CNCC2C3)nc1Nc1ccc2[nH]ncc2c1` [Example 222, N-(2-(3,6-diazabicyclo[3.1.1]heptan-6-yl)-5-chloropyrimidin-4-yl)-1H-indazol-5-amine], the IC50 stood at 122 nM in experiment [1]; 520 nM in experiment [2] (with TGFβ1, 24 hr); 4.9 nM in experiment [3]. The inhibition at 1 µM in experiment [1] (setting [4]) came to 58.2%; in experiment [3] it was 102%.
Consider `Cc1nc(N2CC3CC2CN3)nc(Nc2ccc3[nH]ncc3c2)c1F` (centres unmarked) [Example 277, N-(2-(2,5-diazabicyclo[2.2.1]heptan-2-yl)-5-fluoro-6-methylpyrimidin-4-yl)-1H-indazol-5-amine], for which the IC50 in experiment [1] was determined as 45 nM; in experiment [2] (with TGFβ1, 24 hr) it was 245 nM; in experiment [3], 3.7 nM. For the same compound, in experiment [1] (setting [4]), the inhibition at 1 µM came out at 63.4%.
On the same counts, the results for `c1cc2[nH]ncc2cc1Nc1nc(N2C3CCC2CNC3)nc2c1COC2` [Example 278, 2-(3,8-diazabicyclo[3.2.1]octan-8-yl)-N-(1H-indazol-5-yl)-5,7-dihydrofuro[3,4-d]pyrimidin-4-amine] are 199 nM, 1440 nM, 6.6 nM and 59.9%.
Take `Fc1cc2[nH]ncc2cc1Nc1nc(N2C3CNCC2C3)ncc1Cl` [Example 295, N-(2-(3,6-diazabicyclo[3.1.1]heptan-6-yl)-5-chloropyrimidin-4-yl)-6-fluoro-1H-indazol-5-amine]: the IC50 in experiment [1] was determined as 646 nM; in experiment [2] (with TGFβ1, 24 hr), 2210 nM; in experiment [3], 45 nM. The inhibition at 0.5 µM in experiment [3] was determined as 98%.
On the same counts, the results for `Fc1cc2[nH]ncc2cc1Nc1nc(N2C3CCC2CNC3)ncc1Cl` [Example 296, N-(2-(3,8-diazabicyclo[3.2.1]octan-8-yl)-5-chloropyrimidin-4-yl)-6-fluoro-1H-indazol-5-amine] are 860 nM, 3120 nM, 110 nM and 90%.
On the same counts, the results for `COc1cc2[nH]ncc2cc1Nc1nc(N2C3CNCC2C3)ncc1Cl` [Example 297, N-(2-(3,6-diazabicyclo[3.1.1]heptan-6-yl)-5-chloropyrimidin-4-yl)-6-methoxy-1H-indazol-5-amine] are 1430 nM, 3790 nM, 84 nM and 87%.
As for `FC(F)(F)c1cnc(N2C3CCC2CNC3)nc1Nc1ccc2[nH]ncc2c1` [Example 298, N-(2-(3,8-diazabicyclo[3.2.1]octan-8-yl)-5-(trifluoromethyl)pyrimidin-4-yl)-1H-indazol-5-amine], the 50% inhibitory concentration (IC50) was 1520 nM in experiment [1]; greater than 5000 nM in experiment [2] (with TGFβ1, 24 hr); 75 nM in experiment [3].
With `CN1CCc2nc(N3C4CCC3CNC4)nc(Nc3ccc4[nH]ncc4c3)c2C1` [Example 299, 2-(3,8-diazabicyclo[3.2.1]octan-8-yl)-N-(1H-indazol-5-yl)-6-methyl-5,6,7,8-tetrahydropyrido[4,3-d]pyrimidin-4-amine], the half-inhibitory concentration (IC50) was 1200 nM in experiment [1]; greater than 10000 nM in experiment [2] (with TGFβ1, 24 hr); 34 nM in experiment [3]. For the same compound, the inhibition at 0.5 µM in experiment [3] came out at 70%.
As to `c1cc(-c2cn[nH]c2)ccc1Nc1nc(N2C3CNCC2C3)nc2c1CNC2` [Example 300, N-(4-(1H-pyrazol-4-yl)phenyl)-2-(3,6-diazabicyclo[3.1.1]heptan-6-yl)-6,7-dihydro-5H-pyrrolo[3,4-d]pyrimidin-4-amine], the IC50 in experiment [1] was greater than 10000 nM; in experiment [2] (with TGFβ1, 24 hr) it was greater than 10000 nM. In experiment [3], the inhibition at 0.5 µM stood at 68%.
